Measured values: PMC6015749 (Neurotoxicology, 2018)
Several values for one entry are separate records, joined by “and”; a condition that tells them apart may be missing. Equal entries are not always repeated. Entries after “also recorded” stand apart in the source; their conditions may differ. Where two headings read alike, the source gives them in different places.

Legend:
[1] = system: dopaminergic (TH+) neurites in primary midbrain cultures; experiment: Neurite length quantification of dopaminergic; format: cell-based, rat; settings: for Change in dopaminergic (TH+) neurite length / Dopaminergic (TH+) neurite length (mean ± SEM) / Decrease in dopaminergic (TH+) neurite length / Concentration at which decreased dopaminergic (TH+) neurite length was detected: 24 h; for Decrease in dopaminergic (TH+) neurite length: vs. control; for Change in dopaminergic (TH+) neurite length, time course: 24 – 72 h; for Concentration at which decreased dopaminergic (TH+) neurite length was detected: doses 100 nM – 5 µM
[2] = system: dopaminergic (TH+, MAP2+) neurons in primary midbrain cultures; format: cell-based, rat; settings: for mean % dopaminergic neurons ± S.E.M: n = 6; for Selective loss of dopaminergic neurons / DA neuron loss at 1 µM: vs. control; for percentage of dopaminergic neurons (mean ± SEM), time course: n = 4, control 6.30 ± 0.58
[3] = system: dopaminergic (TH+, MAP2+) neurons in primary midbrain cultures; experiment: 3-Nitrotyrosine; settings: 1 µM; for NT fluorescence intensity normalized to mean control value ± SEM, dopaminergic neurons: control 100 ± 9.1
[4] = system: total neurons (MAP2+) in primary midbrain cultures; experiment: Neurite length quantification, pan-neuronal; format: cell-based, rat; settings: 1 µM, 24 – 72 h, all time-points
[5] = system: non-dopaminergic (TH-, MAP2+) neurons in primary midbrain cultures; experiment: Raw non-dopaminergic; format: cell-based, rat; settings: 1 µM, 24 – 72 h, all time-points
[6] = system: non-dopaminergic (TH-, MAP2+) neurons in primary midbrain cultures; experiment: 3-Nitrotyrosine; settings: 1 µM; control 100 ± 21.61
[7] = ref PubChem Compound Database; cited from earlier work

Row | SMILES | DA neuron loss at 1 µM ([2]; 1 µM, 24 h) | mean % dopaminergic neurons ± S.E.M ([2]; 1 µM, 24 h) | Change in dopaminergic (TH+) neurite length, time course ([1]; 1 µM) | Effect on non-dopaminergic neurites, time course [4] | Effect on non-dopaminergic (MAP2+/TH-) cell counts, time course [5] | percentage of dopaminergic neurons (mean ± SEM), time course ([2]; 1 µM, 24 h) | percentage of dopaminergic neurons (mean ± SEM), time course ([2]; 1 µM, 48 h) | percentage of dopaminergic neurons (mean ± SEM), time course ([2]; 1 µM, 72 h) | Dopaminergic (TH+) neurite length (mean ± SEM) ([1]; 1 µM) | Decrease in dopaminergic (TH+) neurite length ([1]; 1 µM) | other results
1 | Cc1cnc2cc(C)c3c(nc(N)n3C)c2n1 [4,8-DiMeIQx, 2-amino-3,4,8-trimethylimidazo[4,5-f]quinoxaline] | 26% | – | – | – | – | – | – | – | – | – | Change in dopaminergic (TH+) neurite length ([1]; all tested doses 100 nM – 5 µM): no significant alteration; also recorded: did not have an effect; mean % dopaminergic neurons ± S.E.M ([2]; 100 nM, 24 h): 4.663 ± 0.3194%; Selective loss of dopaminergic neurons ([2]; 100 nM, 24 h): 20%
2 | Nc1ccc2c(n1)[nH]c1ccccc12 [AαC, 2-amino-9H-pyrido[2,3-b]indole] | 27% | 3.932 ± 0.4382% | – | – | – | – | – | – | – | – | Dopaminergic (TH+) neurite length (mean ± SEM) ([1]; 100 nM): 62.93 ± 1.743 µm; Decrease in dopaminergic (TH+) neurite length ([1]; 100 nM): 11%
3 | Cc1nccc2c1[nH]c1ccccc12 [Harmane, 1-methyl-9H-pyrido[3,4-b]indole] | 21% | – | Decreased | not affected | not affected | 6.04 ± 0.72% | 4.80 ± 0.90% | 3.47 ± 0.53% | – | – | Dopaminergic (TH+) neurite length (mean ± SEM) ([1]; 100 nM): 62.67 ± 1.713 µm; Decrease in dopaminergic (TH+) neurite length ([1]; 100 nM): 14%; Fold increase in NT immunofluorescence signal vs. control, dopaminergic neurons [3]: ~7 fold; NT fluorescence intensity normalized to mean control value ± SEM, dopaminergic neurons [3]: 731.3 ± 94.03; Threshold for detectable selective DA neurotoxicity [2]: 200 nM; mean % dopaminergic neurons ± S.E.M ([2]; 200 nM, 24 h): 4.677 ± 0.2123%; Selective loss of dopaminergic neurons ([2]; 200 nM, 24 h): 15%; NT fluorescence intensity normalized to mean control value ± SEM, non-dopaminergic neurons [6]: 188.1 ± 23.92
4 | Cn1c(N)nc2c3cccnc3ccc21 [IQ, 2-amino-3-methylimidazo[4,5-f]quinoline] | Not significant | – | – | – | – | – | – | – | – | – | Change in dopaminergic (TH+) neurite length ([1]; higher doses): not significant decreases; Change in dopaminergic (TH+) neurite length ([1]; low doses (100 and 200 nM)): significant increases; mean % dopaminergic neurons ± S.E.M ([2]; 5 µM, 24 h): 4.338 ± 0.4525%; Selective loss of dopaminergic neurons ([2]; 5 µM, 24 h): 23%
5 | Cc1cc2ncccc2c2nc(N)n(C)c12 [MeIQ, 2-amino-3,4-dimethylimidazo[4,5-f]quinoline] | 25% | – | Decreased | not affected | not affected | 5.51 ± 0.66% | 5.11 ± 0.66% | 3.90 ± 0.81% | 63.58 ± 1.584 µm | 10% | Fold increase in NT immunofluorescence signal vs. control, dopaminergic neurons [3]: > 5 fold and ~4 fold; NT fluorescence intensity normalized to mean control value ± SEM, dopaminergic neurons [3]: 362.9 ± 45.8; mean % dopaminergic neurons ± S.E.M ([2]; 200 nM, 24 h): 4.372 ± 0.3579%; Selective loss of dopaminergic neurons ([2]; 200 nM, 24 h): 23%; NT fluorescence intensity normalized to mean control value ± SEM, non-dopaminergic neurons [6]: 130.1 ± 14.91
6 | Cc1cnc2ccc3c(nc(N)n3C)c2n1 [MeIQx, 2-amino-3,8-dimethylmidazo[4,5-f]quinoxaline] | 17% | 4.207 ± 0.3535% | – | – | – | – | – | – | 61.97 ± 1.94 µm | 12% | Concentration at which decreased dopaminergic (TH+) neurite length was detected [1]: 1000 nM; Log P [7]: 1.0
7 | c1ccc2c(c1)[nH]c1cnccc12 [Norharmane, 9H-Pyrido[3,4-B]indole] | 20% | – | – | – | – | – | – | – | – | – | Dopaminergic (TH+) neurite length (mean ± SEM) ([1]; 500 nM): 63.15 ± 1.864 µm; Decrease in dopaminergic (TH+) neurite length ([1]; 500 nM): 11%; Concentration at which decreased dopaminergic (TH+) neurite length was detected [1]: 500 nM; Concentration at which decreased dopaminergic (TH+) neurite length was detected ([1]; listed as norharmane): ≥ 500 nM; mean % dopaminergic neurons ± S.E.M ([2]; 100 nM, 24 h): 4.703 ± 0.3711%; Selective loss of dopaminergic neurons ([2]; 100 nM, 24 h): 18%
8 | Cn1c(N)nc2ncc(-c3ccccc3)cc21 [PhIP, 2-amino-1-methyl-6-phenylimidazo[4,5-b]pyridine] | 19% | 4.612 ± 0.3403% | Decreased | not affected | not affected | 5.17 ± 0.95% | 4.60 ± 0.70% | 3.61 ± 0.45% | 57.76 ± 1.656 µm | 15% | –
